pEC50, pIC50: −log10 of the molar value.
Legend:
[1] = target: T1, Ubiquitin carboxyl-terminal hydrolase 7 (Homo sapiens, UniProt Q93009); assay: Inhibition of recombinant full length USP7 (unknown origin) using ubiquintin-rhodamine as substrate preincubated for 30 mins followed by substrate addition measured after 1 hr by fluorescence-based Envision plate reader assay
[2] = target: T1, Ubiquitin carboxyl-terminal hydrolase 7; assay: Inhibition of USP7 in human RKO cells transfected with p53 luciferase reporter vector assessed as increase in p53-dependent luciferase activity measured after 18 hrs by BrightGlo luciferase assay; assay type: cell-based
[3] = target: T2, Ubiquitin carboxyl-terminal hydrolase 1 (Homo sapiens, UniProt O94782); assay: Inhibition of His6-tagged human USP1 expressed in insect Sf21 cells coexpressing untagged UAF1 assessed as cleavage of Ubiquitin-Rhodamine110-glycine to Ubiquitin and Rhodamine110-glycine using Ubiquitin-Rhodamine110-glycine as substrate by fluorescence based analysis
T2 sequence (O94782 whole entry): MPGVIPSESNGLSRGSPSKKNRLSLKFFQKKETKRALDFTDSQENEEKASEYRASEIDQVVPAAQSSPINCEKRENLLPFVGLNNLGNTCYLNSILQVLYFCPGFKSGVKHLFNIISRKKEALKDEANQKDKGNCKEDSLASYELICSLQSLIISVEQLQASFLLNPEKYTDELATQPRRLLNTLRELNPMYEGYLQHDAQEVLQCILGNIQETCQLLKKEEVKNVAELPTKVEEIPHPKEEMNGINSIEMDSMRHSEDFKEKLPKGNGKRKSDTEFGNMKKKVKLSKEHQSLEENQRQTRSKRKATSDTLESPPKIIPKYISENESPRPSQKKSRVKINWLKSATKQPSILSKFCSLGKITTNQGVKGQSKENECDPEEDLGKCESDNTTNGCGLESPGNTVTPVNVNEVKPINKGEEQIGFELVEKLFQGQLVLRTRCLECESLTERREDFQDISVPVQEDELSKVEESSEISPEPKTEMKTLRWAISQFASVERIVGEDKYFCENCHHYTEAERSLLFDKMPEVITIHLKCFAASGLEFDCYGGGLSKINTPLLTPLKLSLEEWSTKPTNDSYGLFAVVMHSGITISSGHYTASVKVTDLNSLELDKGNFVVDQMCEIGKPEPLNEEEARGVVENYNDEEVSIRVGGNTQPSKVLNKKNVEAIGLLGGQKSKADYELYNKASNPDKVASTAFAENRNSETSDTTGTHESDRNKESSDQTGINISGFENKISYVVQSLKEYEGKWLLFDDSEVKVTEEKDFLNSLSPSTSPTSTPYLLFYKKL

[4] = target: T3, Ubiquitin carboxyl-terminal hydrolase 47 (Homo sapiens, UniProt Q96K76); assay: Inhibition of USP47 (unknown origin) by biochemical assay
T3 sequence (Q96K76 whole entry): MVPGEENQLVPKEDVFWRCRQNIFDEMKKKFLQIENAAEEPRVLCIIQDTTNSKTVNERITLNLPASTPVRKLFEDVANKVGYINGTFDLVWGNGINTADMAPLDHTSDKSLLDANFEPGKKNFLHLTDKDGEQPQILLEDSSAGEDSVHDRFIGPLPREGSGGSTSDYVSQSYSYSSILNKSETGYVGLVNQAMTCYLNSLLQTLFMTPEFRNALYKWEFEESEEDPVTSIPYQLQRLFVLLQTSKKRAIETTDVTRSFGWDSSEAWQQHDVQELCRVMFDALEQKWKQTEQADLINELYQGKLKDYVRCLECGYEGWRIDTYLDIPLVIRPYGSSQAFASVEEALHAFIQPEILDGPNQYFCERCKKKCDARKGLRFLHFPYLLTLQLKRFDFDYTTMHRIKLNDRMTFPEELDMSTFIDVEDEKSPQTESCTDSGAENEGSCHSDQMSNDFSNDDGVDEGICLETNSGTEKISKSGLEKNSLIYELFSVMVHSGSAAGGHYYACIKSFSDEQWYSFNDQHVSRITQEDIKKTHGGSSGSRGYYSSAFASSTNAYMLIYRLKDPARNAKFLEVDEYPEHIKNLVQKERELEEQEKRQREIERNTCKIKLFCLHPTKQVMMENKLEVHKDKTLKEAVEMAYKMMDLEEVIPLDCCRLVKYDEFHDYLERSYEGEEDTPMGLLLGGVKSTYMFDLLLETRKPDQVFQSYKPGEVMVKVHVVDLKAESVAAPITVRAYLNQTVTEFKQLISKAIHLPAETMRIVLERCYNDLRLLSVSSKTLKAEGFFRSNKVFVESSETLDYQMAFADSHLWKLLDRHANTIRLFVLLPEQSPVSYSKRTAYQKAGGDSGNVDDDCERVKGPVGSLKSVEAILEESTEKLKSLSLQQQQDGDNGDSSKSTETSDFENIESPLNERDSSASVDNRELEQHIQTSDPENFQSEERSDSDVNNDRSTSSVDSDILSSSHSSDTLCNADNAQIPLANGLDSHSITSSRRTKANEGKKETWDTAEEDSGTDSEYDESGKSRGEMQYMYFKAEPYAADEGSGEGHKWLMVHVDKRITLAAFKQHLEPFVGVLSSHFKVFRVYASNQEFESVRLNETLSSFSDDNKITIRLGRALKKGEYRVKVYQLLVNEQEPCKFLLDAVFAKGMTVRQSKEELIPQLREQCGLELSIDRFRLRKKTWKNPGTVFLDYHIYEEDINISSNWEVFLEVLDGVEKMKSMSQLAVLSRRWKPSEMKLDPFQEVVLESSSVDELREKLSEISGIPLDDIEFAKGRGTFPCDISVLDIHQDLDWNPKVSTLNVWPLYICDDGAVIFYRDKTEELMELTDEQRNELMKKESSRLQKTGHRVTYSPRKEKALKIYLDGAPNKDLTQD

[5] = Stability of compound in rat hepatocytes assessed as parent compound remaining incubated for 60 mins; assay type: ADME, cell-based, Hepatocyte; details: read-out: Stability
[6] = Stability of compound in human hepatocytes assessed as parent compound remaining incubated for 60 mins; assay type: ADME, cell-based, Hepatocyte; details: read-out: Stability
[7] = Clearance in Sprague-Dawley rat at 0.5 mg/kg, iv; assay type: ADME, organism-based; details: in vivo
[8] = AUC in Sprague-Dawley rat at 2 mg/kg, po; assay type: ADME, organism-based; details: in vivo
MM1.S = assay: Cytotoxicity against human MM1S cells expressing wild type p53 assessed as reduction in cell viability measured after 5 days by CellTiter-Glo assay; assay type: functional; details: 120 h
NCI-H526 = assay: Cytotoxicity against human NCI-H526 cells expressing p53 mutant assessed as reduction in cell viability measured after 5 days by CellTiter-Glo assay; assay type: functional; details: NCI-H526, 120 h
[9] = target: Voltage-gated inwardly rectifying potassium channel KCNH2 (Homo sapiens, UniProt Q12809); assay: Inhibition of human ERG
Sequence of Voltage-gated inwardly rectifying potassium channel KCNH2 (Q12809 whole entry): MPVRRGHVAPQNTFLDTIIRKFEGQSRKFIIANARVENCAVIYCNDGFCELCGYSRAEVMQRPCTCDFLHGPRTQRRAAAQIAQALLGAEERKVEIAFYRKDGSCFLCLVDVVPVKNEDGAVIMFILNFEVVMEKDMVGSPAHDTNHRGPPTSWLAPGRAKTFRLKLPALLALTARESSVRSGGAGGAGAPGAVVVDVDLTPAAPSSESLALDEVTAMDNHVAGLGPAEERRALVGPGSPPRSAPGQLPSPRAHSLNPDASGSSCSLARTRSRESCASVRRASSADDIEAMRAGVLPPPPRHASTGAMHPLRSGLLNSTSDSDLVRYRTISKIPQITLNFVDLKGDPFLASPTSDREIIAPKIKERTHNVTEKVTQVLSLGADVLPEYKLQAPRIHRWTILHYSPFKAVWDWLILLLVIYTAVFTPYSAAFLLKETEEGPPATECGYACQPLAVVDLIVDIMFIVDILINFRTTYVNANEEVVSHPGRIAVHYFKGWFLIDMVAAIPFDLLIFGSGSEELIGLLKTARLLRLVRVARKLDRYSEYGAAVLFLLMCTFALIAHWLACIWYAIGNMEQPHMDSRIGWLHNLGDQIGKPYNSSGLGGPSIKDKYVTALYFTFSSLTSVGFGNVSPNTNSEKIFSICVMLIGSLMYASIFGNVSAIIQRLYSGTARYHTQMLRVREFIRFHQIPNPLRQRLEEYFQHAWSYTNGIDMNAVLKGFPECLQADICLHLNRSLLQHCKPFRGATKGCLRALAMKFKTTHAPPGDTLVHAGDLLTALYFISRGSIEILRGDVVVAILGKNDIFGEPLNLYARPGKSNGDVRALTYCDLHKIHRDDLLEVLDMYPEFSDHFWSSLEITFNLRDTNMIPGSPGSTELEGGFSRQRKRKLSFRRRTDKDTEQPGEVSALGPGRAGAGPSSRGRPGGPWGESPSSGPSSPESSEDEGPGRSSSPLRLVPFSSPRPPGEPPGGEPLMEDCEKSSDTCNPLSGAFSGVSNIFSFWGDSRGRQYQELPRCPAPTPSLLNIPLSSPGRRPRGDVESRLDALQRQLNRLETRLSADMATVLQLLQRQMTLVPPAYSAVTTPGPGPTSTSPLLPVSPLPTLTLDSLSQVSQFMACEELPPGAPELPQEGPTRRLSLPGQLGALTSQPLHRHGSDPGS

T1 sequence (Q93009 whole entry): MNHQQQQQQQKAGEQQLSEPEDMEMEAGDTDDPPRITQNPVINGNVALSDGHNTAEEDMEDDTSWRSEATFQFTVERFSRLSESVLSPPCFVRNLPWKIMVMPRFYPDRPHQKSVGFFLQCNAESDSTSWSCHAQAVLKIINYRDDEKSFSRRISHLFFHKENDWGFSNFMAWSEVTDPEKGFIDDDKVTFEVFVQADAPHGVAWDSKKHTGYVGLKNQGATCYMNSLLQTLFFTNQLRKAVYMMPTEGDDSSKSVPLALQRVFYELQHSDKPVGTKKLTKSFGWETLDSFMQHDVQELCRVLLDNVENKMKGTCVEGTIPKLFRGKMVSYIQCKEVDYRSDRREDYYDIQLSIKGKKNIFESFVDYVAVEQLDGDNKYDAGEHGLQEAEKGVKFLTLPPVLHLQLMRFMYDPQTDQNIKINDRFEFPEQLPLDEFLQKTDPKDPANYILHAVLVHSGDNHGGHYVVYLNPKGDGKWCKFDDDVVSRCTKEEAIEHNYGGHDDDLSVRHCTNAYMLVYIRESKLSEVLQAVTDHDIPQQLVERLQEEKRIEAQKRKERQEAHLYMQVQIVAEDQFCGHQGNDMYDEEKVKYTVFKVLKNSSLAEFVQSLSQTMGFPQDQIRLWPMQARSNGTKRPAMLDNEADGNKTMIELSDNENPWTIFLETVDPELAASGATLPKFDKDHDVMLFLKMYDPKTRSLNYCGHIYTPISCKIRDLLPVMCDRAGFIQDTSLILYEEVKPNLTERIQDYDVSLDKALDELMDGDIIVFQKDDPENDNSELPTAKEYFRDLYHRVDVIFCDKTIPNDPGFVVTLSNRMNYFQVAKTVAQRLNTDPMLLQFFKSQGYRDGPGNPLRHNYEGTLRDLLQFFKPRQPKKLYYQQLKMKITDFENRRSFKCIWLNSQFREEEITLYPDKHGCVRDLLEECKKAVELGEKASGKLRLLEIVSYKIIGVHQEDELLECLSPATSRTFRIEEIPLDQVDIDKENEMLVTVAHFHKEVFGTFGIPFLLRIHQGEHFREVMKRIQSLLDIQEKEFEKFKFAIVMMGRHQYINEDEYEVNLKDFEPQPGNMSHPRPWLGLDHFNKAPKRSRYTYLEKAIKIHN

## Cc1cc(Cl)cc(-c2ccnc3cc(CN4C(=O)CCC4=O)sc23)c1CN1CCNC[C@@H]1C
[1]
  pIC50: 8.18
[2]
  pEC50: 6.55

## O=C([C@H]1Cc2cc(Cl)cc(-c3ccnc4ccsc34)c2O1)N1CCNCC1
[1]
  pIC50: 7.05
[3]
  pIC50: < 4.40
[4]
  pIC50: < 4.40

## Cc1cc(Cl)cc(-c2ccnc3cc(CN4C(=O)C5C(C4=O)C5(C)C)sc23)c1NC1CCCNC1 (centres undefined)
[1]
  pIC50: 9.11
[2]
  pEC50: 7.48

## O=C([C@H]1Cc2cc(Cl)cc(-c3ccnc4cc(CN5C(=O)CCC5=O)sc34)c2O1)N1CCNCC1
[1]
  pIC50: 9.74
[4]
  pIC50: < 5.70
[5]
  remaining at 1 h: 14%
[6]
  remaining at 1 h: 37%
[7]
  clearance: 192 mL/min/kg

## O=C1CCC(=O)N1Cc1cc2nccc(-c3cc(Cl)cc4c3O[C@@H](c3onc5c3CNCC5)C4)c2s1
[1]
  pIC50: 9.42
[5]
  remaining at 1 h: 4%
[6]
  remaining at 1 h: 26%
[7]
  clearance: 96.7 mL/min/kg

## O=C1CCCN1Cc1cc2nccc(-c3cc(Cl)cc4c3O[C@@H](C(=O)N3CCNCC3)C4)c2s1
[1]
  pIC50: 7.59
[4]
  pIC50: < 4.70

## Cc1cc(Cl)cc(-c2ccnc3cc(Cn4c(=O)ccn(CC(F)(F)F)c4=O)sc23)c1O[C@@H]1CCNC[C@@H]1C
[1]
  pIC50: 9.59
[2]
  pEC50: 7.38
[7]
  clearance: 16.7 mL/min/kg
[8]
  AUC: 52 ng·h/mL

## Cc1cc(Cl)cc(-c2ccnc3cc(CN4C(=O)C5CC5C4=O)sc23)c1C[C@@H]1CNCCO1 (some centres undefined)
[1]
  pIC50: 9.80
[2]
  pEC50: 7.46
MM1.S
  CC50: 210 nM
NCI-H526
  CC50: 3600 nM
[9]
  pIC50: 5.10

## Cc1cc(Cl)cc(-c2ccnc3cc(CN4C(=O)CCC4=O)sc23)c1O[C@H]1C[C@H](N)C1
[1]
  pIC50: 8.47
[2]
  pEC50: 6.82

## O=C([C@H]1Cc2cc(Cl)cc(-c3ccnc4cc(CO)sc34)c2O1)N1CCNCC1
[1]
  pIC50: 7.37
[3]
  pIC50: < 4.40
[4]
  pIC50: < 4.40

## Cc1cc(Cl)cc(-c2ccnc3cc(CN4C(=O)CCC4=O)sc23)c1CN1CCNCC1
[1]
  pIC50: 7.49
[2]
  pEC50: 5.92

## Cc1cc(Cl)cc(-c2ccnc3cc(CN4C(=O)CCC4=O)sc23)c1O[C@@H]1CNC[C@@H]1F
[1]
  pIC50: 8.92
[2]
  pEC50: 6.25
[7]
  clearance: 35 mL/min/kg
[8]
  AUC: 130 ng·h/mL

## Cc1cc2nccc(-c3cc(Cl)cc4c3O[C@@H](C(=O)N3CCNCC3)C4)c2s1
[1]
  pIC50: 6.89
[3]
  pIC50: < 4.10
[4]
  pIC50: < 4.10

## O=C1CCC(=O)N1Cc1cc2nccc(-c3cc(Cl)cc4c3O[C@@H](c3ocnc3CN3CCC3)C4)c2s1
[1]
  pIC50: 7.89
[5]
  remaining at 1 h: 2%
[6]
  remaining at 1 h: 14%

## Cc1cc(Cl)cc(-c2ccnc3cc(CN4C(=O)CCC4=O)sc23)c1O[C@H]1CCCNC1
[1]
  pIC50: 8.34
[2]
  pEC50: 6.74
[7]
  clearance: 81.7 mL/min/kg
[8]
  AUC: 170 ng·h/mL

## Cc1cc(Cl)cc(-c2ccnc3cc(CN4C(=O)C5CC5C4=O)sc23)c1O[C@@H]1CCNC[C@@H]1C (some centres undefined)
[1]
  pIC50: 8.96
[2]
  pEC50: 6.77

## O=C([C@H]1Cc2cc(Cl)cc(-c3ccnc4[nH]ccc34)c2O1)N1CCNCC1
[1]
  pIC50: 6.35
[3]
  pIC50: < 4.10
[4]
  pIC50: < 4.10

## O=C([C@H]1Cc2cc(Cl)cc(-c3ccnc4cc(C5(O)COC5)sc34)c2O1)N1CCNCC1
[1]
  pIC50: 7.14
[4]
  pIC50: < 4.40

## Cc1cc(Cl)cc(-c2ccnc3cc(CN4C(=O)C5C(C4=O)C5(C)C)sc23)c1OC1CCCNC1 (centres undefined)
[1]
  pIC50: 8.62
[2]
  pEC50: 6.60

## Cc1cc(Cl)cc(-c2ccnc3cc(CN4C(=O)C5CC5C4=O)sc23)c1C[C@@H]1CNC[C@@H](C)O1 (mixture of isomers)
[1]
  pIC50: 9.41
[2]
  pEC50: 7.22
MM1.S
  CC50: 120 nM

## Cc1cc(Cl)cc(-c2ccnc3cc(CN4C(=O)CCC4=O)sc23)c1O[C@@H]1CCNC[C@@H]1C
[1]
  pIC50: 8.68
[2]
  pEC50: 6.82
[7]
  clearance: 1.17 mL/min/kg
[8]
  AUC: 860 ng·h/mL

## CC(=O)NCc1cc2nccc(-c3cc(Cl)cc4c3O[C@@H](C(=O)N3CCNCC3)C4)c2s1
[1]
  pIC50: 7.60
[4]
  pIC50: < 4.10

## O=C(C1Cc2cc(Cl)cc(-c3ccnc4[nH]ccc34)c2O1)N1CCNCC1 (racemic)
[1]
  pIC50: 6.03
[3]
  pIC50: < 4.10
[4]
  pIC50: < 4.10

## O=C([C@H]1Cc2cc(Cl)cc(-c3ccnc4cc(C(O)(CO)CCl)sc34)c2O1)N1CCNCC1 (some centres undefined)
[1]
  pIC50: 8.05
[4]
  pIC50: < 4.40

## Cc1cc(Cl)cc(-c2ccnc3cc(CN4C(=O)C5CC5C4=O)sc23)c1C[C@H]1OCCN[C@@H]1C (mixture of isomers)
[1]
  pIC50: 8.82
[2]
  pEC50: 6.68
MM1.S
  CC50: 310 nM

## Cc1cc(Cl)cc(-c2ccnc3cc(CN4C(=O)CCC4=O)sc23)c1OCC1(F)CNC1
[1]
  pIC50: 8.82
[2]
  pEC50: 6.49

## O=C([C@H]1Cc2cc(Cl)cc(-c3ccnc4cc(Cn5cnccc5=O)sc34)c2O1)N1CCNCC1
[1]
  pIC50: 7.57
[4]
  pIC50: < 5.30

## Cn1nc2c(c1[C@H]1Cc3cc(Cl)cc(-c4ccnc5cc(CN6C(=O)CCC6=O)sc45)c3O1)CNCC2
[1]
  pIC50: 8.96
[5]
  remaining at 1 h: 42%
[6]
  remaining at 1 h: 63%
[7]
  clearance: 78.3 mL/min/kg

## Cc1cc(Cl)cc(-c2ccnc3cc(CN4C(=O)CCC4=O)sc23)c1CN1[C@@H](C)CNC[C@@H]1C
[1]
  pIC50: 9.49
[2]
  pEC50: 7.22
MM1.S
  CC50: 135 nM
NCI-H526
  CC50: 2200 nM
[9]
  pIC50: 5.57

## Cc1cc(Cl)cc(-c2ccnc3cc(CN4C(=O)C5C(C4=O)C5(C)C)sc23)c1CC1CCCNC1 (centres undefined)
[1]
  pIC50: 8.89
[2]
  pEC50: 6.89

## O=C1CCC(=O)N1Cc1cc2nccc(-c3cc(Cl)ccc3O[C@@H]3CNC[C@@H]3F)c2s1
[1]
  pIC50: 6.68

## Cc1cc(Cl)cc(-c2ccnc3cc(CN4C(=O)CCC4=O)sc23)c1OC1CCNCC1
[1]
  pIC50: 8.10
[2]
  pEC50: 6.40
[7]
  clearance: 5.5 mL/min/kg
[8]
  AUC: 44 ng·h/mL

— ChEMBL document CHEMBL4602719, “Discovery of Potent, Selective, and Orally Bioavailable Inhibitors of USP7 with In Vivo Antitumor Activity” (J Med Chem, 2020)
